Measured values: patent publication US7723332B2, “Aryl sulfonamides useful for modulation of the progesterone receptor” (Wyeth LLC, priority 2007, dated 2010)

Tested on: alkaline phosphatase activity in T47D cells
Experiment: Effects of progestins and antiprogestins on alkaline phosphatase activity in T47D cells
Assay type: cell-based
Details: for IC50: Homo sapiens
Description: Effects of Progestins and Antiprogestins on Alkaline Phosphatase Activity in T47D Cells
This example was performed to identify progestins or antiprogestins by determining a compound's effect on alkaline phosphatase activity in T47D cells.
Culture medium: DMEM:F12 (1:1) (GIBCO, BRL) supplemented with 5% (v/v) charcoal stripped fetal bovine serum (not heat-inactivated), 100 U/mL penicillin, 100 μg/mL streptomycin, and 2 mM the GlutaMax™ reagent (GIBCO, BRL).
Alkaline phosphatase assay buffer: • I. 0.1M Tris-HCl, pH 9.8, containing 0.2% the Triton® X-100 reagent • II. 0.1 M Tris-HCl, pH 9.8, containing 4 mM p-nitrophenyl phosphate (Sigma).
Frozen T47D cells were thawed in a 37° C. water bath and diluted to 280,000 cells/mL in culture medium. To each well in a 96-well plate (Falcon, Becton Dickinson Labware), 180 μL of diluted cell suspension was added. Twenty μL of reference or test compounds diluted in the culture medium was then added to each well. When testing for progestin antagonist activity, reference antiprogestins or test compounds were added in the presence of 1 nM progesterone. The cells were incubated at 37° C. in a 5% CO2/humidified atmosphere for 24 hours. NOTE: For high throughput screening, one concentration of each compound was tested at 0.3 μg/mL. Based on an average molecular weight of 300 g/mol for the compounds in the library, the concentration was approximately 1 μM. Subsequently, active compounds were tested in dose response assays to determine EC50 and IC50.
At the end of treatment, the medium was removed from the plate. Fifty μL of assay buffer I was added to each well. The plates were shaken in a titer plate shaker for 15 minutes. 150 μL of assay buffer II was then added to each well. Optical density measurements were taken at 5 minute intervals for 30 minutes at a test wavelength of 405 nm.
For reference and test compounds, a dose response curve was generated for dose (X-axis) vs. the rate of enzyme reaction (slope) (Y-axis). Square root-transformed data was used for analysis of variance and nonlinear dose response curve fitting for both agonist and antagonist modes. Huber weighting was used to down-weight the effects of outliners. EC50 or IC50 values were calculated from the retransformed values. JMP software (SAS Institute, Inc.) was used for both one-way analysis of variance and non-4 linear dose response analysis in both single dose and dose response studies.
Progesterone and trimegestone are reference progestins known in the art and typically show an EC50 of about 0.1 nM to about 2.0 nM.

[1] = T47D alkaline phosphatase assay, antagonist mode in the presence of 1 nM progesterone, 24 hours

| Compound | IC50 [1] [nM] | other results |
| --- | --- | --- |
| Cn1c(C#N)ccc1-c1ccc(S(=O)(=O)NC2CC2)c(F)c1 [Example 43, 4-(5-cyano-1-methyl-1H-pyrrol-2-yl)-N-cyclopropyl-2-fluorobenzenesulfonamide] |  | Active Dose [1]: 30 nM |
| Cn1c(C#N)ccc1-c1ccc(S(=O)(=O)NC(C)(C)C)c(OC(F)(F)F)c1 [Example 57, N-tert-butyl-4-(5-cyano-1-methyl-1H-pyrrol-2-yl)-2-(trifluoromethoxy)benzenesulfonamide] |  | Active Dose [1]: 30 nM |
| CCNS(=O)(=O)c1ccc(-c2ccc(C#N)n2C)c(F)c1 [Example 33, 4-(5-cyano-1-methyl-1H-pyrrol-2-yl)-N-ethyl-3-fluorobenzenesulfonamide] | 13.1 |  |
| Cn1c(C#N)ccc1-c1ccc(S(=O)(=O)n2cccc2)cc1 [Example 18, 1-methyl-5-[4-(1H-pyrrol-1-ylsulfonyl)phenyl]-1H-pyrrole-2-carbonitrile] | 48.1 |  |
| CC(C)NS(=O)(=O)c1cc(F)c(-c2ccc(C#N)n2C)cc1F [Example 60, 4-(5-cyano-1-methyl-1H-pyrrol-2-yl)-2,5-difluoro-N-isopropylbenzenesulfonamide] | 49.3 |  |
| CNS(=O)(=O)c1cc(F)c(-c2ccc(C#N)n2C)cc1F [Example 59, 4-(5-cyano-1-methyl-1H-pyrrol-2-yl)-2,5-difluoro-N-methylbenzenesulfonamide] | 36.1 |  |
| CCNS(=O)(=O)c1ccc(-c2ccc(C#N)n2C)cc1 [Example 3, 4-(5-cyano-1-methyl-1H-pyrrol-2-yl)-N-ethylbenzenesulfonamide] | 11.4 |  |
| CC#C[C@]1(O)CC[C@H]2[C@@H]3CCC4=CC(=O)CCC4=C3[C@@H](c3ccc(N(C)C)cc3)C[C@@]21C [RU486, reference compound] |  | IC50 (T47D, 24 h, reference antiprogestin, in the presence of 1 nM progesterone, typical value): 0.1 to 2 nM |
| Cn1c(C#N)ccc1-c1cc(F)c(S(=O)(=O)NC2CC2)cc1F [Example 61, 4-(5-cyano-1-methyl-1H-pyrrol-2-yl)-N-cyclopropyl-2,5-difluorobenzenesulfonamide] |  | Active Dose [1]: 30 nM |
| CCCNS(=O)(=O)c1ccc(-c2ccc(C#N)n2C)cc1 [Example 4, 4-(5-cyano-1-methyl-1H-pyrrol-2-yl)-N-propylbenzenesulfonamide] | 23.8 |  |
| Cn1c(C#N)ccc1-c1ccc(S(=O)(=O)N2CCCC2)cc1 [Example 10, 1-methyl-5-[4-(pyrrolidin-1-ylsulfonyl)phenyl]-1H-pyrrole-2-carbonitrile] | 146 |  |
| CC(C)NS(=O)(=O)c1ccc(-c2ccc(C#N)n2C)c(F)c1 [Example 35, 4-(5-cyano-1-methyl-1H-pyrrol-2-yl)-3-fluoro-N-isopropylbenzenesulfonamide] | 26.8 |  |
| CCN(CC)S(=O)(=O)c1ccc(-c2ccc(C#N)n2C)cc1 [Example 8, 4-(5-cyano-1-methyl-1H-pyrrol-2-yl)-N,N-diethylbenzenesulfonamide] | 48.4 |  |
| Cn1c(C#N)ccc1-c1ccc(S(=O)(=O)N2CCCCC2)cc1 [Example 11, 1-methyl-5-[4-(piperidin-1-ylsulfonyl)phenyl]-1H-pyrrole-2-carbonitrile] | 132 |  |
| Cn1c(C#N)ccc1-c1ccc(S(=O)(=O)N2CCCC2)cc1F [Example 37, 5-[2-fluoro-4-(pyrrolidin-1-ylsulfonyl)phenyl]-1-methyl-1H-pyrrole-2-carbonitrile] | 151 |  |

The next lines start with results.

| IC50 [1] [nM] | Compound | other results |
| --- | --- | --- |
| 17.3 | CCCNS(=O)(=O)c1ccc(-c2ccc(C#N)n2C)cc1C(F)(F)F [Example 25, 4-(5-cyano-1-methyl-1H-pyrrol-2-yl)-N-propyl-2-(trifluoromethyl)benzenesulfonamide] |  |
| 18.1 | Cn1c(C#N)ccc1-c1ccc(S(=O)(=O)NC2CCC2)cc1F [Example 40, 4-(5-cyano-1-methyl-1H-pyrrol-2-yl)-N-cyclobutyl-3-fluorobenzenesulfonamide] |  |
| 80.4 | CCN(CC)S(=O)(=O)c1ccc(-c2ccc(C#N)n2C)cc1C(F)(F)F [Example 22, 4-(5-cyano-1-methyl-1H-pyrrol-2-yl)-N,N-diethyl-2-(trifluoromethyl)benzenesulfonamide] |  |
| 8.5 | CNS(=O)(=O)c1ccc(-c2ccc(C#N)n2C)c(F)c1 [Example 31, 4-(5-cyano-1-methyl-1H-pyrrol-2-yl)-3-fluoro-N-methylbenzenesulfonamide] |  |
| 35.8 | Cn1c(C#N)ccc1-c1ccc(S(N)(=O)=O)c(C(F)(F)F)c1 [Example 19, 4-(5-cyano-1-methyl-1H-pyrrol-2-yl)-2-(trifluoromethyl)benzenesulfonamide] |  |
| 122 | CCNS(=O)(=O)c1ccc(-c2ccc(C#N)n2C)cc1OC(F)(F)F [Example 49, 4-(5-cyano-1-methyl-1H-pyrrol-2-yl)-N-ethyl-2-(trifluoromethoxy)benzenesulfonamide] |  |
| 13.9 | Cn1c(C#N)ccc1-c1ccc(S(=O)(=O)NC2CCC2)cc1 [Example 13, 4-(5-cyano-1-methyl-1H-pyrrol-2-yl)-N-cyclobutylbenzenesulfonamide] |  |
| 47.9 | CC(C)CNS(=O)(=O)c1ccc(-c2ccc(C#N)n2C)cc1 [Example 6, 4-(5-cyano-1-methyl-1H-pyrrol-2-yl)-N-isobutylbenzenesulfonamide] |  |
| 58.9 | Cn1c(C#N)ccc1-c1ccc(S(=O)(=O)NC2CCCCC2)cc1 [Example 15, 4-(5-cyano-1-methyl-1H-pyrrol-2-yl)-N-cyclohexylbenzenesulfonamide] |  |
| 38.2 | Cn1c(C#N)ccc1-c1ccc(S(=O)(=O)NC2CC2)c(C(F)(F)F)c1 [Example 27, 4-(5-cyano-1-methyl-1H-pyrrol-2-yl)-N-cyclopropyl-2-(trifluoromethyl)benzenesulfonamide] |  |
| 75.8 | Cn1c(C#N)ccc1-c1ccc(S(N)(=O)=O)c(OC(F)(F)F)c1 [Example 46, 4-(5-cyano-1-methyl-1H-pyrrol-2-yl)-2-(trifluoromethoxy)benzenesulfonamide] |  |
| 25.9 | CN(C)c1cc(-c2ccc(C#N)n2C)ccc1S(=O)(=O)N(C)C [Example 58, 4-(5-cyano-1-methyl-1H-pyrrol-2-yl)-2-(dimethylamino)-N,N-dimethylbenzenesulfonamide] |  |
| 77.1 | CC(C)NS(=O)(=O)c1ccc(-c2ccc(C#N)n2C)cc1C(F)(F)F [Example 23, 4-(5-cyano-1-methyl-1H-pyrrol-2-yl)-N-isopropyl-2-(trifluoromethyl)benzenesulfonamide] |  |
| 34.9 | Cn1c(C#N)ccc1-c1ccc(S(=O)(=O)NCC2CC2)c(C(F)(F)F)c1 [Example 28, 4-(5-cyano-1-methyl-1H-pyrrol-2-yl)-N-(cyclopropylmethyl)-2-(trifluoromethyl)benzenesulfonamide] |  |
| 101 | CCN(CC)S(=O)(=O)c1ccc(-c2ccc(C#N)n2C)cc1OC(F)(F)F [Example 50, 4-(5-cyano-1-methyl-1H-pyrrol-2-yl)-N,N-diethyl-2-(trifluoromethoxy)benzenesulfonamide] |  |
| 9.7 | Cn1c(C#N)ccc1-c1ccc(S(=O)(=O)NC2CC2)cc1F [Example 38, 4-(5-cyano-1-methyl-1H-pyrrol-2-yl)-N-cyclopropyl-3-fluorobenzenesulfonamide] |  |
| 6.6 | Cn1c(C#N)ccc1-c1ccc(S(=O)(=O)NC2CC2)cc1 [Example 14, 4-(5-cyano-1-methyl-1H-pyrrol-2-yl)-N-cyclopropylbenzenesulfonamide] |  |
| 27.5 | CC(C)NS(=O)(=O)c1ccc(-c2ccc(C#N)n2C)cc1 [Example 5, 4-(5-cyano-1-methyl-1H-pyrrol-2-yl)-N-isopropylbenzenesulfonamide] |  |
| 81.9 | CN(C)S(=O)(=O)c1ccc(-c2ccc(C#N)n2C)cc1C(F)(F)F [Example 20, 4-(5-cyano-1-methyl-1H-pyrrol-2-yl)-N,N-dimethyl-2-(trifluoromethyl)benzenesulfonamide] |  |
| 48.1 | CC(C)NS(=O)(=O)c1ccc(-c2ccc(C#N)n2C)cc1F [Example 42, 4-(5-cyano-1-methyl-1H-pyrrol-2-yl)-2-fluoro-N-isopropylbenzenesulfonamide] |  |
| 62.7 | CN(C)S(=O)(=O)c1ccc(-c2ccc(C#N)n2C)cc1OC(F)(F)F [Example 48, 4-(5-cyano-1-methyl-1H-pyrrol-2-yl)-N,N-dimethyl-2-(trifluoromethoxy)benzenesulfonamide] |  |
| 12.3 | Cn1c(C#N)ccc1-c1ccc(S(=O)(=O)NCC2CC2)c(OC(F)(F)F)c1 [Example 55, 4-(5-cyano-1-methyl-1H-pyrrol-2-yl)-N-(cyclopropylmethyl)-2-(trifluoromethoxy)benzenesulfonamide] |  |
